Test results as given in PMC8286840, “Identifying SARS-CoV-2 antiviral compounds by screening for small molecule inhibitors of Nsp3 papain-like protease” (Biochemical Journal, 2021).
Where a name gives a salt, the structure may show the parent alone. Read-outs that look alike come from different tables or passages of the source.

Tests used:
[1] = target: T1, SARS-CoV-2 PLpro (nsp3 1564–1878) (Severe acute respiratory syndrome coronavirus 2, UniProt P0DTD1); experiment: biochemical; design: FRET-quenched peptide (Pro3) cleavage by PLpro, 10 min pre-incubation, slope over 20 min, normalised to no-compound control; conditions: read-out: % of control remaining
[2] = target: T1, SARS-CoV-2 PLpro (nsp3 1564–1878); experiment: biochemical; design: FRET-quenched peptide (Pro3) cleavage by PLpro, 10 min pre-incubation, slope over 20 min, normalised to no-compound control; conditions: read-out: % of control remaining; remark: listed apart in the source

With `CC(C)C(N)CC(=O)O` (stereo not drawn) [3-Amino-4-methylpentanoic acid] the remaining activity at 1.25 µM ([1]; Well no.=6403, low concentration screen) was 103% and the remaining activity at 3.75 µM ([2]; Well no.=6403, high concentration screen) was 105%.
`CCOC(=O)[C@H](CCc1ccccc1)N[C@@H](C)C(=O)N1Cc2cc(OC)c(OC)cc2C[C@H]1C(=O)O` [Moexipril HCl] was tested, and the remaining activity at 1.25 µM ([1]; Well no.=4760, low concentration screen) was 97.7% and the remaining activity at 3.75 µM ([2]; Well no.=4760, high concentration screen) was 97.7%.
For `CCOC(=O)C(C)(C)Oc1ccc(Cl)cc1` [Clofibrate], the remaining activity at 1.25 µM ([1]; Well no.=326, low concentration screen) was 94.4%, the remaining activity at 1.25 µM ([1]; Well no.=1899, low concentration screen) was 94.1% and the remaining activity at 1.25 µM ([1]; Well no.=4468, low concentration screen) was 93.7%. It also gave a remaining activity at 3.75 µM ([2]; Well no.=326, high concentration screen) of 94.8%, a remaining activity at 3.75 µM ([2]; Well no.=1899, high concentration screen) of 94% and a remaining activity at 3.75 µM ([2]; Well no.=4468, high concentration screen) of 99.4%.
In the case of `COC(=O)C(N)Cc1ccc(Cl)cc1` (racemic) [DL-p-Chlorophenylalanine methyl ester hydrochloride], the remaining activity at 1.25 µM ([1]; Well no.=364, low concentration screen) is reported as 95.9% and the remaining activity at 3.75 µM ([2]; Well no.=364, high concentration screen) is reported as 91.1%.
For `CNC(=C[N+](=O)[O-])NCCSCc1ccc(CN(C)C)o1` [Ranitidine (hydrochloride)], the remaining activity at 1.25 µM ([1]; Well no.=6609, low concentration screen) was 102% and the remaining activity at 3.75 µM ([2]; Well no.=6609, high concentration screen) was 104%.
In the case of `COc1cccc(-c2cc(=O)c3ccccc3o2)c1N` [PD 98059 - 2-(2-Amino-3-methoxyphenyl)-4H-1-benzopyran-4-one], the remaining activity at 1.25 µM ([1]; Well no.=2348, low concentration screen) is reported as 98.4% and the remaining activity at 3.75 µM ([2]; Well no.=2348, high concentration screen) is reported as 96.8%.
`Cc1cncc2cccc(S(=O)(=O)N3CCCN(C(=O)CN)C[C@@H]3C)c12` [Rho Kinase Inhibitor IV] was tested, and the remaining activity at 1.25 µM ([1]; Well no.=2559, low concentration screen) was 104% and the remaining activity at 3.75 µM ([2]; Well no.=2559, high concentration screen) was 105%.
Work on `NC(=O)CI` [Iodoacetamide] yielded a remaining activity at 1.25 µM ([1]; Well no.=430, low concentration screen) of 104% and a remaining activity at 3.75 µM ([2]; Well no.=430, high concentration screen) of 96.4%.
In the case of `CCCC(C)(COC(N)=O)COC(=O)NC(C)C` (stereo not drawn) [Carisoprodol], the remaining activity at 1.25 µM ([1]; Well no.=380, low concentration screen) is reported as 95.8% and the remaining activity at 3.75 µM ([2]; Well no.=380, high concentration screen) is reported as 95.3%.
In the case of `C[C@]12CC[C@@H]3c4ccc(O)cc4CC[C@H]3[C@@H]1CC[C@H]2O` [Alpha-Estradiol], the remaining activity at 1.25 µM ([1]; Well no.=6693, low concentration screen) is reported as 98.9% and the remaining activity at 3.75 µM ([2]; Well no.=6693, high concentration screen) is reported as 93.1%.
Work on `Cn1cnc(N)c2ncnc1-2` [3-Methyladenine] yielded a remaining activity at 1.25 µM ([1]; Well no.=5079, low concentration screen) of 104%, a remaining activity at 1.25 µM ([1]; Well no.=7447, low concentration screen) of 103% and a remaining activity at 3.75 µM ([2]; Well no.=7447, high concentration screen) of 106%.
Molecule `CC(=O)Nc1ccn([C@@H]2O[C@H](COP(=O)(O)OP(=O)(O)OP(=O)(O)O)[C@@H](O)[C@H]2O)c(=O)n1` [N4-Acetylcytidine triphosphate (sodium)] has a remaining activity at 1.25 µM ([1]; Well no.=7305, low concentration screen) of 109%, a remaining activity at 1.25 µM ([1]; Well no.=7964, low concentration screen) of 95.2% and a remaining activity at 3.75 µM ([2]; Well no.=7305, high concentration screen) of 109%. The remaining activity at 3.75 µM ([2]; Well no.=7964, high concentration screen) was 92.1%.
`N#CC(C#N)=C(N)/C(C#N)=C/c1ccc(O)cc1` [Tyrphostin AG 112] showed a remaining activity at 1.25 µM ([1]; Well no.=1245, low concentration screen) of 95.9% and a remaining activity at 3.75 µM ([2]; Well no.=1245, high concentration screen) of 95.9%.
In the case of `CC(C(=O)O)C(=O)O` [Methylmalonate], the remaining activity at 1.25 µM [1] is reported as 100% and the remaining activity at 3.75 µM [2] is reported as 95.5%.
In the case of `Fc1ccc([C@@H]2CCNC[C@H]2COc2ccc3c(c2)OCO3)cc1` [Paroxetine], the remaining activity at 1.25 µM ([1]; Well no.=2093, low concentration screen) is reported as 103% and the remaining activity at 3.75 µM ([2]; Well no.=2093, high concentration screen) is reported as 101%.
`O=C(c1ccc(OCCN2CCCCC2)cc1)c1c(-c2ccc(O)cc2)sc2cc(O)ccc12` [Raloxifene hydrochloride] showed a remaining activity at 1.25 µM ([1]; Well no.=1204, low concentration screen) of 97.4% and a remaining activity at 3.75 µM ([2]; Well no.=1204, high concentration screen) of 99.2%.
